Marks after values point to notes of the source that are not given here.
Tests used:
PHD2181-417 = target: T1, PHD2181-417 (Homo sapiens, UniProt Q9GZT9); assay: PHD enzyme activity assay ([14C]-succinic acid production); assay type: biochemical; conditions: inhibition of PHD2181-417 activity; HIF-1α peptide 10 μM, [5-14C]-2-oxoglutaric acid, 10 minutes; read-out: Enzyme pIC50 (converted);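 further: enzyme expressed in E. coli BL21, assayed in Tris-HCl pH 7.5 with catalase, DTT and ascorbate, [14C]-succinic acid beta-counted after DNP precipitation of residual 2-oxoglutarate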
T1 construct: histidine tag (N, cleaved yes); Smt3 (SUMO) tag (N, cleaved yes); made in house; host or cells: E. coli BL21 (pBAD vector)

Hep-3B cells = assay: Cellular assay: EPO secretion in Hep-3B cells; assay type: cell-based, human; conditions: 24 hours, percent of EPO secretion relative to assay control compound
[1] = final compound concentration of 10 μM
[2] = final compound concentration 100 μM

T1 sequence (Q9GZT9 181-417): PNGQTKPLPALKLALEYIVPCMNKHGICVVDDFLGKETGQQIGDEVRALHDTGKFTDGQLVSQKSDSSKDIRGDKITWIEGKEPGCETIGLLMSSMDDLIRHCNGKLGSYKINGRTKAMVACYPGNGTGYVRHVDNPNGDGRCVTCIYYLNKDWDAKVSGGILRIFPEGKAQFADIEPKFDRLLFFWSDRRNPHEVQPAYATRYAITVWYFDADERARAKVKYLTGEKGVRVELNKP

Compound | IC50 (PHD2181-417) | Cellular % EPO Stimulation (Hep-3B cells; [1]) | Cellular % EPO Stimulation (Hep-3B cells; [2])
CC(NC(=O)c1nc2ccccc2[nH]1)C(=O)O (stereo in doubt) [Example 50, (R)-2-[(1H-Benzoimidazole-2-carbonyl)-amino]-propionic acid] | > 100000 nM | 9.50* % | –
O=C(NC(CO)C(=O)O)c1nc2ccccc2[nH]1 (stereo in doubt) [Example 51, (R)-2-[(1H-Benzoimidazole-2-carbonyl)-amino]-3-hydroxy-propionic acid] | 20000 nM | 0.73* % | –
O=C(O)CNC(=O)c1nc2ccccc2[nH]1 [Example 1, [(1H-Benzoimidazole-2-carbonyl)-amino]-acetic acid] | – | – | 23.9%
C[C@H](NC(=O)c1nc2ccccc2[nH]1)C(=O)O [Example 2, (S)-2-[(1H-Benzoimidazole-2-carbonyl)-amino]-propionic acid] | 39800 nM | – | 66.03%
C[C@H](NC(=O)c1nc2cc(Cl)c(Cl)cc2[nH]1)C(=O)O [Example 4, (S)-2-[(5,6-Dichloro-1H-benzoimidazole-2-carbonyl)-amino]-propionic acid] | 25100 nM | – | 7.70%
O=C(O)CNC(=O)c1nc2ccc([N+](=O)[O-])cc2[nH]1 [Example 5, [(6-Nitro-1H-benzoimidazole-2-carbonyl)-amino]-acetic acid] | 5010 nM | – | 0.00%
O=C(O)CNC(=O)c1nc2cc(C(F)(F)F)cc(C(F)(F)F)c2[nH]1 [Example 6, [(5,7-Bis-trifluoromethyl-1H-benzoimidazole-2-carbonyl)-amino]-acetic acid] | – | – | 4.20%
C[C@H](NC(=O)c1nc2cc(C(F)(F)F)cc(C(F)(F)F)c2[nH]1)C(=O)O [Example 7, (S)-2-[(5,7-Bis-trifluoromethyl-1H-benzoimidazole-2-carbonyl)-amino]-propionic acid] | – | – | 1.60%
O=C(O)CNC(=O)c1nc2cc(I)ccc2[nH]1 [Example 8, [(5-Iodo-1H-benzoimidazole-2-carbonyl)-amino]-acetic acid] | 39800 nM | – | 3.80%
O=C(O)CNC(=O)c1nc2ccc(Br)cc2[nH]1 [Example 9, [(6-Bromo-1H-benzoimidazole-2-carbonyl)-amino]-acetic acid] | – | – | 9.80%
C[C@H](NC(=O)c1nc2ccc(F)cc2[nH]1)C(=O)O [Example 10, (S)-2-[(6-Fluoro-1H-benzoimidazole-2-carbonyl)-amino]-propionic acid] | > 100000 nM | – | 14.74%
C[C@@H](NC(=O)c1nc2ccc(F)cc2[nH]1)C(=O)O [Example 11, (R)-2-[(6-Fluoro-1H-benzoimidazole-2-carbonyl)-amino]-propionic acid] | 79400 nM | – | 23.93%
COc1ccc2nc(C(=O)NCC(=O)O)[nH]c2c1 [Example 12, [(6-Methoxy-1H-benzoimidazole-2-carbonyl)-amino]-acetic acid] | – | – | 0.50%
O=C(O)CNC(=O)c1nc2cc(-c3cccc(OCc4cccc(Cl)c4)c3)ccc2[nH]1 [Example 13, ({5-[3-(3-Chloro-benzyloxy)-phenyl]-1H-benzoimidazole-2-carbonyl}-amino)-acetic acid] | 1580 nM | – | 1.20%
O=C(O)CNC(=O)c1nc2cc(-c3cccc(OCc4ccccc4Cl)c3)ccc2[nH]1 [Example 14, ({5-[3-(2-Chloro-benzyloxy)-phenyl]-1H-benzoimidazole-2-carbonyl}-amino)-acetic acid] | 2510 nM | – | −3.80%
O=C(O)CNC(=O)c1nc2cc(-c3cccc(OCc4ccc(Cl)cc4)c3)ccc2[nH]1 [Example 15, ({5-[3-(4-Chloro-benzyloxy)-phenyl]-1H-benzoimidazole-2-carbonyl}-amino)-acetic acid] | 2510 nM | – | −3.90%
O=C(O)CNC(=O)c1nc2cc(-c3cccc(OCc4cccc(F)c4)c3)ccc2[nH]1 [Example 16, ({5-[3-(3-Fluoro-benzyloxy)-phenyl]-1H-benzoimidazole-2-carbonyl}-amino)-acetic acid] | 2510 nM | – | 2.10%
O=C(O)CNC(=O)c1nc2cc(-c3cccc(OCc4ccccc4F)c3)ccc2[nH]1 [Example 17, ({5-[3-(2-Fluoro-benzyloxy)-phenyl]-1H-benzoimidazole-2-carbonyl}-amino)-acetic acid] | 5010 nM | – | 1.50%
O=C(O)CNC(=O)c1nc2cc(-c3ccc(Oc4ccccc4)cc3)ccc2[nH]1 [Example 18, {[5-(4-Phenoxy-phenyl)-1H-benzoimidazole-2-carbonyl]-amino}-acetic acid] | 7940 nM | – | 2.00%
O=C(O)CNC(=O)c1nc2cc(-c3cc(F)cc(OCc4ccccc4)c3)ccc2[nH]1 [Example 19, {[5-(3-Benzyloxy-5-fluoro-phenyl)-1H-benzoimidazole-2-carbonyl]-amino}-acetic acid] | 6310 nM | – | −3.80%

Compound | IC50 (PHD2181-417) | Cellular % EPO Stimulation (Hep-3B cells; [1]) | Cellular % EPO Stimulation (Hep-3B cells; [2])
O=C(O)CNC(=O)c1nc2cc(-c3cnc4ccccc4c3)ccc2[nH]1 [Example 20, [(5-Quinolin-3-yl-1H-benzoimidazole-2-carbonyl)-amino]-acetic acid] | 1580 nM | – | 8.26%
Cc1cc2nc(-n3cc(C(=O)O)cn3)[nH]c2cc1C [Example 36, 1-(5,6-Dimethyl-1H-benzoimidazol-2-yl)-1H-pyrazole-4-carboxylic acid] | 794 nM | – | –
O=C(O)c1cnn(-c2nc3c(Cl)cc(C(F)(F)F)cc3[nH]2)c1 [Example 39, 1-(4-Chloro-6-trifluoromethyl-1H-benzoimidazol-2-yl)-1H-pyrazole-4-carboxylic acid] | 158 nM | – | –
COc1cc2nc(-n3cc(C(=O)O)cn3)[nH]c2cc1OC [Example 40, 1-(5,6-Dimethoxy-1H-benzoimidazol-2-yl)-1H-pyrazole-4-carboxylic acid] | 398 nM | – | –
Cc1ccc2[nH]c(-n3cc(C(=O)O)cn3)nc2c1C [Example 41, 1-(4,5-Dimethyl-1H-benzoimidazol-2-yl)-1H-pyrazole-4-carboxylic acid] | 7940 nM | – | –
O=C(O)c1cnn(-c2nc3cc(-c4cccc(OCc5cccc(Cl)c5)c4)ccc3[nH]2)c1 [Example 43, 1-{5-[3-(3-Chloro-benzyloxy)-phenyl]-1H-benzoimidazol-2-yl}-1H-pyrazole-4-carboxylic acid] | 31.6 nM | – | –
O=C(O)c1cnn(-c2nc3cc(-c4cccc(OCc5ccccc5Cl)c4)ccc3[nH]2)c1 [Example 44, 1-{5-[3-(2-Chloro-benzyloxy)-phenyl]-1H-benzoimidazol-2-yl}-1H-pyrazole-4-carboxylic acid] | 25.1 nM | – | –
O=C(O)c1cnn(-c2nc3cc(-c4cccc(OCc5ccccc5)c4)ccc3[nH]2)c1 [Example 46, 1-[5-(3-Benzyloxy-phenyl)-1H-benzoimidazol-2-yl]-1H-pyrazole-4-carboxylic acid] | 50.1 nM | – | –
O=C(O)c1cnn(-c2nc3cc(-c4ccc(OCc5ccccc5)cc4)ccc3[nH]2)c1 [Example 47, 1-[5-(4-Benzyloxy-phenyl)-1H-benzoimidazol-2-yl]-1H-pyrazole-4-carboxylic acid] | 200 nM | – | –
O=C(O)c1cnn(-c2nc3cc(-c4cccc(C(F)(F)F)c4)ccc3[nH]2)c1 [Example 48, 1-[5-(3-Trifluoromethyl-phenyl)-1H-benzoimidazol-2-yl]-1H-pyrazole-4-carboxylic acid] | 79.4 nM | – | –
O=C(O)c1cnn(-c2nc3cc(-c4ccc(Cl)c(Cl)c4)ccc3[nH]2)c1 [Example 49, 1-[5-(3,4-Dichloro-phenyl)-1H-benzoimidazol-2-yl]-1H-pyrazole-4-carboxylic acid] | 79.4 nM | – | –
C[C@@H](NC(=O)c1nc2cc(C(F)(F)F)cc(C(F)(F)F)c2[nH]1)C(=O)O [Example 52, (R)-2-[(5,7-Bis-trifluoromethyl-1H-benzoimidazole-2-carbonyl)-amino]-propionic acid] | – | – | 17.80%
O=C(O)c1cn(-c2nc3cc(Br)ccc3[nH]2)nc1C(F)(F)F [Example 55, 1-(5-Bromo-1H-benzoimidazol-2-yl)-3-trifluoromethyl-1H-pyrazole-4-carboxylic acid] | > 100000 nM | – | –
O=C(O)c1cn(-c2nc3cc(Cl)c(Cl)cc3[nH]2)nc1C(F)(F)F [Example 56, 1-(5,6-dichloro-1H-benzoimidazol-2-yl)-3-trifluoromethyl-1H-pyrazole-4-carboxylic acid] | > 10000 nM | – | –
Cc1nn(-c2nc3cc(Br)ccc3[nH]2)c(C)c1C(=O)O [Example 57, 1-(5-Bromo-1H-benzoimidazol-2-yl)-3,5-dimethyl-1H-pyrazole-4-carboxylic acid] | 63100 nM | – | –
Cc1nn(-c2nc3cc(Cl)c(Cl)cc3[nH]2)c(C)c1C(=O)O [Example 58, 1-(5,6-Dichloro-1H-benzoimidazol-2-yl)-3,5-dimethyl-1H-pyrazole-4-carboxylic acid] | > 10000 nM | – | –
O=C(O)c1cnn(-c2nc3cc(-c4ccc(O)cc4)ccc3[nH]2)c1 [Example 59, 1-[5-(4-Hydroxy-phenyl)-1H-benzoimidazol-2-yl]-1H-pyrazole-4-carboxylic acid] | 251 nM | – | –
O=C(O)c1cnn(-c2nc3cc(-c4cccc(O)c4)ccc3[nH]2)c1 [Example 60, 1-[5-(3-Hydroxy-phenyl)-1H-benzoimidazol-2-yl]-1H-pyrazole-4-carboxylic acid] | 316 nM | – | –
O=C(O)c1cnn(-c2nc3cc(Cl)ccc3[nH]2)c1 [Example 61, 1-(5-Chloro-1H-benzoimidazol-2-yl)-1H-pyrazole-4-carboxylic acid] | 501 nM | – | –
Cc1c(Br)cc2nc(-n3cc(C(=O)O)cn3)[nH]c2c1C [Example 62, 1-(5-Bromo-6,7-dimethyl-1H-benzoimidazol-2-yl)-1H-pyrazole-4-carboxylic acid] | 398 nM | – | –
